This passage reports Tm shift results from PubChem BioAssay AID397 (SGCOxCompounds, 2006).

Molecules are shown by their SMILES.

For the first assay, the target named is GTP-binding protein GEM (Homo sapiens) (UniProt P55040). As to the kind of experiment: GEM binders by thermal shift, biophysical, DSF, SYPRO orange, purified protein (AID 397). The note with it: at 10 µM, protein 2 µM, buffer 10 mM HEPES, pH 7.5, NaCl 150 mM, DTT 1 mM, GDP 40 µM, MgCl 1 mM, stronger effect = higher value.
GTP-binding protein GEM (Homo sapiens), sequence (P55040 whole entry, looked up): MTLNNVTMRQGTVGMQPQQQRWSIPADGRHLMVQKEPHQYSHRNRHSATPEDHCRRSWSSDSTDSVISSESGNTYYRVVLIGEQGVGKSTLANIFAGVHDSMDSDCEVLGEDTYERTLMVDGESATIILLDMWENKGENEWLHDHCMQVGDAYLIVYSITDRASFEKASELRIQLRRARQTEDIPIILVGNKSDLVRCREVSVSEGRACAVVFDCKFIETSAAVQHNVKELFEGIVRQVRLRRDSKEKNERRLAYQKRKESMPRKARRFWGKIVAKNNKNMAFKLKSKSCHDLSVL
Take `O=C1NC(=O)c2c1c1c3ccccc3[nH]c1c1[nH]c3cc(Br)ccc3c21`: the Tm shift was 3.1 Celsius.

The same assay, now with this note: at 10 µM, protein 2 µM, buffer 10 mM HEPES, pH 7.5, NaCl 150 mM, DTT 1 mM, stronger effect = higher value.
On to `COC(=O)/C=C/c1cc(O)ccc1O`, for which the Tm shift was 3.2 Celsius.
Take `COc1cc2ncnc(Nc3cccc(Br)c3)c2cc1OC`: the Tm shift was 5.4 Celsius.
Take `NC(=O)c1ccc(-c2nc(-c3ccc4c(c3)OCCO4)c(-c3ccccn3)[nH]2)cc1`: the Tm shift is 4.5 Celsius.
On to `NC1=N/C(=C2/CCNC(=O)c3[nH]c(Br)cc32)C(=O)N1`, for which the Tm shift was 3.1 Celsius.
As to `O=c1cc(-c2ccc(O)cc2)oc2cc(O)cc(O)c12`, the Tm shift was 4.1 Celsius.
Regarding `O=c1c(-c2ccc(O)cc2)coc2cc(O)cc(O)c12`, the Tm shift was 5 Celsius.
Regarding `CN(C)CCCn1cc(C2=C(c3c[nH]c4ccccc34)C(=O)NC2=O)c2ccccc21`, the Tm shift was 3.2 Celsius.
For `Nc1cc2ncnc(Nc3cccc(Br)c3)c2cc1N`, the Tm shift was 3.5 Celsius.
For the molecule `CN(C)S(O)(O)c1ccc2c(c1)/C(=C/c1cc3c([nH]1)CCCC3)C(=O)N2`, the Tm shift was 3.1 Celsius.
For `Oc1ccc(-c2nc(-c3ccc(F)cc3)c(-c3ccncc3)[nH]2)cc1`, the Tm shift was 6 Celsius.

The same assay, now with this note: at 10 µM, protein 2 µM, buffer 10 mM HEPES, pH 7.5, NaCl 150 mM, DTT 1000 µM, with dithiothreitol, stronger effect = higher value.
As for `Ic1cccc(CSc2nnc(-c3ccncc3)o2)c1`, the Tm shift is 2.4 Celsius.
Take `CC(O)(O)C1(O)C[C@@H]2O[C@@]1(C)n1c3ccccc3c3c4c(c5c6ccccc6n2c5c31)C(=O)NC4` (stereo partly specified): the Tm shift was 3 Celsius.
Still for that read-out and setting: as for `CC(C)n1cnc2c(Nc3cccc(Cl)c3)nc(NCCO)nc21`, the figure is 2.3 Celsius; as for `N#CC(Cc1ccc(O)c(O)c1)C(=O)Nc1ccccc1` (stereo unspecified), 2.7 Celsius.
Turning to `N#C/C(=C(/N)Sc1ccc(N)cc1)c1ccccc1C(F)(F)F`, the Tm shift was 2.8 Celsius.
For `CCCCc1c(-c2ccc(O)cc2)[nH]c2nccnc12`, the Tm shift was 2.7 Celsius.
Still for that read-out and setting: the same measure for `CC[C@H](CO)Nc1nc(NCc2ccccc2)c2ncn(C(C)C)c2n1`: 2.1 Celsius; for `O=S(=O)(c1cccc2c(Cl)cccc12)N1CCCNCC1`: 2.8 Celsius.
For the molecule `Nc1[nH]nc2nc3ccccc3nc12`, the Tm shift is 2.5 Celsius.
For `O=C1Nc2ccccc2/C1=C\c1cnc[nH]1`, the Tm shift was 2.5 Celsius.
As for `C=C(Nc1cc(NC(=O)c2cccc(N(C)C)c2)ccc1C)c1ccc(O)cc1`, the Tm shift is 2.8 Celsius.
With `CC(C)(C)c1nc2c3cc[nH]c(=O)c3c3cc(F)ccc3c2[nH]1`, the Tm shift was 3 Celsius.
Same read-out and setting: the same measure for `Oc1cc(O)cc(/C=C/c2ccc(O)c(O)c2)c1`: 2.3 Celsius; for `C/C(O)=C(\C#N)C(=O)Nc1cc(Br)ccc1Br`: 2.2 Celsius.

The same assay, now with this note: at 10 µM, protein 2 µM, buffer 10 mM HEPES, pH 7.5, NaCl 150 mM, GDP 40 µM, stronger effect = higher value.
Regarding `COc1cc(O)c2c(c1)oc(=O)c1c3cc(O)c(O)cc3oc21`, the Tm shift was 2.3 Celsius.
Regarding `COc1cc(/C=C/C(=O)CC(=O)/C=C/c2ccc(O)c(OC)c2)ccc1O`, the Tm shift is 2.4 Celsius.
`Brc1c(Br)c(Br)c2n[nH]nc2c1Br`: the Tm shift was 2.5 Celsius.

The same assay, now with this note: at 10 µM, protein 2 µM, buffer 10 mM HEPES, pH 7.5, NaCl 150 mM, stronger effect = higher value.
On to `Cc1ccc(NC(=O)c2snc3c(=O)[nH]cnc23)cc1`, for which the Tm shift was 2.1 Celsius.
The same measure, in the same setting: as for `Cc1ccc2c(c1Br)C(=Nc1ccc(Cl)cc1)C(=O)N2`, the figure is 2.3 Celsius.
On to `CCOc1c(Br)ccc2c1sc1nc[nH]c(=O)c12`, for which the Tm shift was 3.1 Celsius.
